This note sets out measurements from ChEMBL document CHEMBL3232779, “Discovery of a potent stapled helix peptide that binds to the 70N domain of replication protein A” (J Med Chem, 2014).

Positions of bridges follow the written chain, without caps; N, C: chain ends. Non-standard residues stand in square brackets, D forms with d. Residues, ends and D or L forms follow the SMILES beside them. *: point of attachment. X1 = O=C(O)c1cc(NC(=S)*)ccc1-c1c2ccc(=O)cc-2oc2cc(O)ccc12; Phe(3,4-Cl2) = N[C@@H](Cc1ccc(Cl)c(Cl)c1)C(=O)O; R5 = C=CCCC[C@@](C)(N)C(=O)O

In data set [1] the target is T1, Replication protein A 70 kDa DNA-binding subunit (Homo sapiens, UniProt P27694).
T1 sequence (P27694 whole entry): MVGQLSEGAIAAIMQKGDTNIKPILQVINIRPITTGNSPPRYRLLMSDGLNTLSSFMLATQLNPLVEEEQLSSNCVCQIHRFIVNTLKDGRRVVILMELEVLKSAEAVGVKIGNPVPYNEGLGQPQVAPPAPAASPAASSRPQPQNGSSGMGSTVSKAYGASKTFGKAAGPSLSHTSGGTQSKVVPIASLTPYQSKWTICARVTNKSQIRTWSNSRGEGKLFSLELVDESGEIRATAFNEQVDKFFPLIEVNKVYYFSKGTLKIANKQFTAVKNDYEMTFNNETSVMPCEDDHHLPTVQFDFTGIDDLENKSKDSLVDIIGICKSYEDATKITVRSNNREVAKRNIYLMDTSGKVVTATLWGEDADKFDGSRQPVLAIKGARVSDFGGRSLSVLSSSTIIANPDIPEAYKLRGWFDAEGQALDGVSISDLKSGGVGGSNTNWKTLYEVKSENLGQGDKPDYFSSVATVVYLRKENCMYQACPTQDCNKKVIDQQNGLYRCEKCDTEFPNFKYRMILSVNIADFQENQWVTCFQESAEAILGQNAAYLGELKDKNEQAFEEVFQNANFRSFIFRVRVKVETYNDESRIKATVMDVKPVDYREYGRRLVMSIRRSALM
In a further data set the test system is U2OS. In words: Cellular uptake in human U2OS cells after 24 hrs by confocal microscopy. In kind it is ADME, cell-based.
Data set [2] concerns the target T1, Replication protein A 70 kDa DNA-binding subunit. Put plainly: Binding affinity to recombinant human RPA70 A/B region (181 to 422 amino acids) expressed in Escherichia coli Rosetta by fluorescence polarization anisotropy assay. (In general: Fluorescence polarisation rises when a labelled molecule tumbles more slowly, as on binding a larger partner.)
A short description of data set [3]: Binding affinity to recombinant human RPA70C/32D/14 by fluorescence polarization anisotropy assay.

In general, Kd refers to a measure of binding affinity in units of concentration. In data set [1], `CC(C)C[C@H](NC(=O)[C@H](CC(=O)O)NC(=O)[C@H](CC(=O)O)NC(=O)[C@H](C)NC(=O)[C@@H](NC(=O)[C@H](Cc1ccccc1)NC(=O)[C@H](CC(=O)O)NC(=S)Nc1ccc(-c2c3ccc(=O)cc-3oc3cc(O)ccc23)c(C(=O)O)c1)[C@@H](C)O)C(=O)N[C@@H](CCC(=O)O)C(=O)N[C@@H](CCC(=O)O)C(=O)N[C@@H](CC(C)C)C(=O)N[C@@H](CC(=O)O)C(=O)N[C@H](C(=O)N[C@@H](CC(C)C)C(=O)N[C@@H](C)C(=O)N[C@@H](CO)C(N)=O)[C@@H](C)O` (X1-DFTADDLEELDTLAS-NH2) gave a Kd of 6.4 µM.

Regarding `CC(C)C[C@H](NC(=O)[C@H](CC(=O)O)NC(=O)[C@H](CC(=O)O)NC(=O)[C@H](C)NC(=O)[C@@H](NC(=O)[C@H](Cc1ccccc1)NC(=O)[C@H](CC(=O)O)NC(=S)Nc1ccc(-c2c3ccc(=O)cc-3oc3cc(O)ccc23)c(C(=O)O)c1)[C@@H](C)O)C(=O)N[C@@H](CCC(=O)O)C(=O)N[C@@H](CCC(=O)O)C(=O)N[C@@H](Cc1c[nH]c2ccccc12)C(=O)N[C@@H](Cc1ccccc1)C(=O)N[C@@H](C)C(N)=O` (X1-DFTADDLEEWFA-NH2), in data set [1], the Kd stood at 0.91 µM.

Take `CC(C)C[C@H](NC(=O)[C@H](C)NC(=O)[C@H](Cc1ccccc1)NC(=O)[C@H](Cc1c[nH]c2ccccc12)NC(=O)[C@H](CCC(=O)O)NC(=O)[C@H](CCC(=O)O)NC(=O)[C@H](CC(C)C)NC(=O)[C@H](CC(=O)O)NC(=O)[C@H](CC(=O)O)NC(=O)[C@H](C)NC(=O)[C@@H](NC(=O)[C@H](Cc1ccccc1)NC(=O)[C@H](CC(=O)O)NC(=S)Nc1ccc(-c2c3ccc(=O)cc-3oc3cc(O)ccc23)c(C(=O)O)c1)[C@@H](C)O)C(N)=O` (X1-DFTADDLEEWFAL-NH2): the dissociation constant (Kd) in data set [1] worked out at 0.33 µM.

In turn, `CC(C)C[C@H](NC(=O)[C@H](C)NC(=O)[C@H](Cc1ccccc1)NC(=O)[C@H](Cc1c[nH]c2ccccc12)NC(=O)[C@H](CCC(=O)O)NC(=O)[C@H](CCC(=O)O)NC(=O)[C@H](CC(C)C)NC(=O)[C@H](CC(=O)O)NC(=O)[C@H](CC(=O)O)NC(=O)[C@H](C)NC(=O)[C@@H](NC(=O)[C@H](Cc1ccccc1)NC(=O)[C@H](CC(=O)O)NC(=S)Nc1ccc(-c2c3ccc(=O)cc-3oc3cc(O)ccc23)c(C(=O)O)c1)[C@@H](C)O)C(=O)N[C@@H](C)C(N)=O` (X1-DFTADDLEEWFALA-NH2) registered a Kd in data set [1] of 0.58 µM.

In data set [1], `CC(C)C[C@H](NC(=O)[C@H](C)NC(=O)[C@H](Cc1ccc(Cl)c(Cl)c1)NC(=O)[C@H](Cc1c[nH]c2ccccc12)NC(=O)[C@H](CCC(=O)O)NC(=O)[C@H](CCC(=O)O)NC(=O)[C@H](CC(C)C)NC(=O)[C@H](CC(=O)O)NC(=O)[C@H](CC(=O)O)NC(=O)[C@H](C)NC(=O)[C@@H](NC(=O)[C@H](Cc1ccccc1)NC(=O)[C@H](CC(=O)O)NC(=S)Nc1ccc(-c2c3ccc(=O)cc-3oc3cc(O)ccc23)c(C(=O)O)c1)[C@@H](C)O)C(N)=O` (X1-DFTADDLEEW[Phe(3,4-Cl2)]AL-NH2) had a Kd of 0.022 µM.

On to `CC(C)C[C@H](NC(=O)[C@H](C)NC(=O)[C@H](Cc1ccccc1)NC(=O)[C@H](Cc1c[nH]c2ccccc12)NC(=O)[C@@]1(C)CCC/C=C\CCC[C@@](C)(NC(=O)[C@H](C)NC(=O)[C@@H](NC(=O)[C@H](Cc2ccccc2)NC(=O)[C@H](CC(=O)O)NC(=S)Nc2ccc(-c3c4ccc(=O)cc-4oc4cc(O)ccc34)c(C(=O)O)c2)[C@@H](C)O)C(=O)N[C@@H](CC(=O)O)C(=O)N[C@@H](CC(C)C)C(=O)N[C@@H](CCC(=O)O)C(=O)N1)C(=O)O` (X1-DFTA[R5]DLE[R5]WFAL-OH; staple (Z) 5-9), for which the Drug uptake entry with U2OS is recorded as “Not Active”. In addition, the Kd in data set [1] was 0.57 µM.

As for `CC(C)C[C@H](NC(=O)[C@H](C)NC(=O)[C@H](Cc1ccccc1)NC(=O)[C@H](Cc1c[nH]c2ccccc12)NC(=O)[C@@]1(C)CCC/C=C\CCC[C@@](C)(NC(=O)[C@H](C)NC(=O)[C@@H](NC(=O)[C@H](Cc2ccccc2)NC(=O)[C@H](CC(=O)O)NC(=S)Nc2ccc(-c3c4ccc(=O)cc-4oc4cc(O)ccc34)c(C(=O)O)c2)[C@@H](C)O)C(=O)N[C@@H](CC(N)=O)C(=O)N[C@@H](CC(C)C)C(=O)N[C@@H](CCC(=O)O)C(=O)N1)C(=O)O` (X1-DFTA[R5]NLE[R5]WFAL-OH; staple (Z) 5-9), in the data set with U2OS, the Drug uptake entry is listed as “Active”. For the same compound, binding in data set [1] was put at a Kd of 3.7 µM.

`CC(C)C[C@H](NC(=O)[C@H](C)NC(=O)[C@H](Cc1ccccc1)NC(=O)[C@H](Cc1c[nH]c2ccccc12)NC(=O)[C@H](C)NC(=O)[C@H](CCC(=O)O)NC(=O)[C@H](CC(C)C)NC(=O)[C@H](CC(N)=O)NC(=O)[C@H](C)NC(=O)[C@H](C)NC(=O)[C@@H](NC(=O)[C@H](Cc1ccccc1)NC(=O)[C@H](CC(N)=O)NC(=S)Nc1ccc(-c2c3ccc(=O)cc-3oc3cc(O)ccc23)c(C(=O)O)c1)[C@@H](C)O)C(=O)N[C@@H](C)C(=O)N[C@@H](CO)C(N)=O` (X1-NFTAANLEAWFALAS-NH2): the Kd in data set [1] was determined as 21 µM.

The compound `CC(C)C[C@H](NC(=O)[C@H](C)NC(=O)[C@H](Cc1ccccc1)NC(=O)[C@H](Cc1c[nH]c2ccccc12)NC(=O)[C@@]1(C)CCC/C=C\CCC[C@@](C)(NC(=O)[C@H](C)NC(=O)[C@@H](NC(=O)[C@H](Cc2ccccc2)NC(=O)[C@H](CC(N)=O)NC(=S)Nc2ccc(-c3c4ccc(=O)cc-4oc4cc(O)ccc34)c(C(=O)O)c2)[C@@H](C)O)C(=O)N[C@@H](CC(=O)O)C(=O)N[C@@H](CC(C)C)C(=O)N[C@@H](CCC(=O)O)C(=O)N1)C(=O)O` (X1-NFTA[R5]DLE[R5]WFAL-OH; staple (Z) 5-9) had a Kd in data set [1] of 1.5 µM.

In turn, `CC(C)C[C@H](NC(=O)[C@H](C)NC(=O)[C@H](Cc1ccc(Cl)c(Cl)c1)NC(=O)[C@H](Cc1c[nH]c2ccccc12)NC(=O)[C@@]1(C)CCC/C=C\CCC[C@@](C)(NC(=O)[C@H](C)NC(=O)[C@@H](NC(=O)[C@H](Cc2ccccc2)NC(=O)[C@H](CC(N)=O)NC(=S)Nc2ccc(-c3c4ccc(=O)cc-4oc4cc(O)ccc34)c(C(=O)O)c2)[C@@H](C)O)C(=O)N[C@@H](CC(=O)O)C(=O)N[C@@H](CC(C)C)C(=O)N[C@@H](CCC(=O)O)C(=O)N1)C(=O)O` (X1-NFTA[R5]DLE[R5]W[Phe(3,4-Cl2)]AL-OH; staple (Z) 5-9) displayed a Kd in data set [1] of 0.048 µM.

Turning to `CC(C)C[C@H](NC(=O)[C@H](C)NC(=O)[C@H](Cc1ccccc1)NC(=O)[C@H](Cc1c[nH]c2ccccc12)NC(=O)[C@@]1(C)CCC/C=C\CCC[C@@](C)(NC(=O)[C@H](C)NC(=O)[C@@H](NC(=O)[C@H](Cc2ccccc2)NC(=O)[C@H](CC(N)=O)NC(=S)Nc2ccc(-c3c4ccc(=O)cc-4oc4cc(O)ccc34)c(C(=O)O)c2)[C@@H](C)O)C(=O)N[C@@H](CC(N)=O)C(=O)N[C@@H](CC(C)C)C(=O)N[C@@H](CCC(=O)O)C(=O)N1)C(=O)O` (X1-NFTA[R5]NLE[R5]WFAL-OH; staple (Z) 5-9), the Kd turned out to be 12 µM in data set [2], 12 µM in data set [3] and 7.4 µM in data set [1]. Further, the Drug uptake entry with U2OS is “Active”.

On to Ac-AFTADDLEELDTLAS-NH2, for which binding in data set [1] was characterised by a dissociation constant (Kd) of 152 µM.

As for Ac-DFAADDLEELDTLAS-NH2, binding in data set [1] was put at a Kd of 152 µM.

Regarding Ac-DFTAADLEELDTLAS-NH2, binding in data set [1] was characterised by a dissociation constant (Kd) of 31 µM.

Compound Ac-DFTAADLEEWFALAS-NH2 displayed a Kd in data set [1] of 2.3 µM.

In data set [1], Ac-DFTADALEELDTLAS-NH2 displayed a Kd of 225 µM.

The compound Ac-DFTADALEEWFALAS-NH2 gave a Kd in data set [1] of 28 µM.

For the compound Ac-DFTADDAEELDTLAS-NH2, in data set [1], binding was put at a Kd of 172 µM.

For the compound Ac-DFTADDLAELDALAS-NH2, the Kd in data set [1] is 20 µM.

In data set [1], Ac-DFTADDLAELDTLAS-OH returned a Kd of 22 µM.

In turn, Ac-DFTADDLAEWFALAS-NH2 yielded a Kd in data set [1] of 28 µM.

In data set [1], Ac-DFTADDLAEWFTLAS-NH2 gave a Kd of 43 µM.

Compound Ac-DFTADDLEALDTLAS-NH2 registered a Kd in data set [1] of 167 µM.

With Ac-DFTADDLEAWFALAS-NH2, the affinity in data set [1], expressed as Kd, was 2.4 µM.

Take Ac-DFTADDLEEADTLAS-NH2: binding in data set [1] was put at a Kd of 197 µM.

Ac-DFTADDLEELATLAS-NH2 gave a Kd in data set [1] of 85 µM.

In data set [1], Ac-DFTADDLEELDALAS-NH2 had a dissociation constant Kd of 17 µM.

Turning to Ac-DFTADDLEELDTAAS-NH2, the affinity in data set [1], expressed as Kd, was 63 µM.

As for Ac-DFTADDLEELDTLAA-NH2, the affinity in data set [1], expressed as Kd, was 26 µM.

In data set [1], Ac-DFTADDLEELFTLAS-NH2 returned a Kd of 22 µM.

In data set [1], Ac-DFTADDLEEWDTLAS-NH2 had a Kd of 138 µM.

Ac-DFTADDLEEWFALAS-NH2 showed a Kd in data set [1] of 1.2 µM.

As to Ac-DFTADDLEEWFTLAS-NH2, the affinity in data set [1], expressed as Kd, was 2.7 µM.

As for Ac-DFTADDLEQWFALAS-NH2, the affinity in data set [1], expressed as Kd, was 2.6 µM.

For the compound Ac-DFTADNLEEWFALAS-NH2, in data set [1], the Kd turned out to be 6.9 µM.

Consider Ac-DFTANDLEEWFALAS-NH2, for which the affinity in data set [1], expressed as Kd, was 19 µM.

Compound Ac-NFTADDLEEWFALAS-NH2 came in with a Kd in data set [1] of 5.8 µM.
